Marks after values point to notes of the source that are not given here.
Columns and labels:
[1] = Predicted metabolic stability, human hepatic microsomes; assay type: in vitro ADME; settings: 10^−7 M, human hepatic microsomes 0.33 mg of prot/ml, NADPH
Method: (§1) The predicted metabolic stability is tested by incubation of the compounds at a concentration of 10^−7M in the presence of mouse, rat or human hepatic microsomes (0.33 mg of prot/ml). After addition of NADPH (nicotinamide adenine dinucleotide phosphate, reduced form), samples are taken at 0, 5, 15, 30 and 60 minutes. The enzymatic reaction is stopped using methanol (V/V). The protein is precipitated by centrifugation and the supernatant is analysed by LC-MS-MS.

[2] = tested on: muscarinic (M) receptors; test: Affinity for receptors, displacement of labelled specific ligand: muscarinic; assay type: binding; settings: concentration 10^−5 M
Method: (§2) The affinity for receptors is determined according to customary methods of relations between the specific ligand and the receptor, which may be of animal origin or a human recombinant. The affinity was determined by the method of displacement of the labelled specific ligand by the compound under test and expressed by the dissociation constant KI. The receptor affinity was accordingly studied for 28 conventional receptors.

[3] = molecular target: dopaminergic receptors (type D2) (Homo sapiens, UniProt P14416); test: Affinity for receptors, displacement of labelled specific ligand: D2; assay type: binding; settings: for inhibition at 10 µM: concentration 10^−5 M; for inhibition at 0.1 µM: concentration 10^−7 M
Sequence of dopaminergic receptors (type D2) (P14416 whole entry): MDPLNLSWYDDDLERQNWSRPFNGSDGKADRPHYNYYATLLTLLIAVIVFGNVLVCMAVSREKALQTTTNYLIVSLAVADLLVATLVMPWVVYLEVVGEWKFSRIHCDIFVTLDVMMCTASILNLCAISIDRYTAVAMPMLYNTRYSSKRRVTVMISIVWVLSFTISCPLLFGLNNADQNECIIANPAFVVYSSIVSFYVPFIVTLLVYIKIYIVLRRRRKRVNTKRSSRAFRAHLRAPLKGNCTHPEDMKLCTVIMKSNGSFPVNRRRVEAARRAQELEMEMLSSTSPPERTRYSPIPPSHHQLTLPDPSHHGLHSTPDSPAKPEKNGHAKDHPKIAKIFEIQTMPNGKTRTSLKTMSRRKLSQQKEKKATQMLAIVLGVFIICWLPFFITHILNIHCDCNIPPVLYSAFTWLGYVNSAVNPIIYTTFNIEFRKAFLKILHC

[4] = molecular target: dopaminergic receptors (type D1) (Homo sapiens, UniProt P21728); test: Affinity for receptors, displacement of labelled specific ligand: D1; assay type: binding; settings: for inhibition at 10 µM: concentration 10^−5 M; for inhibition at 0.1 µM: concentration 10^−7 M
Sequence of dopaminergic receptors (type D1) (P21728 whole entry): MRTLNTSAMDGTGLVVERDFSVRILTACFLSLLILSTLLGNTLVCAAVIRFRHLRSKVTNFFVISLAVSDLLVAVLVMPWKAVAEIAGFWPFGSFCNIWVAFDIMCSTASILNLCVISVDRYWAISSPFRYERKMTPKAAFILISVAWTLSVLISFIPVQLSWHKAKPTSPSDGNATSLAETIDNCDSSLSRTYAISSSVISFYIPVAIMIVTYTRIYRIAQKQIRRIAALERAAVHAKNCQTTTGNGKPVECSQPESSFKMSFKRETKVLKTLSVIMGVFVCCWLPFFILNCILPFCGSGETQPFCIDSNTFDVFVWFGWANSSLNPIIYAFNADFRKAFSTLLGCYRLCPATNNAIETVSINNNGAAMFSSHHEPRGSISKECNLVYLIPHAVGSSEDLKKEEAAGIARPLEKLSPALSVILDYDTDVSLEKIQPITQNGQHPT

[5] = Predicted metabolic stability, mouse hepatic microsomes; assay type: in vitro ADME; settings: 10^−7 M, mouse hepatic microsomes 0.33 mg of prot/ml, NADPH
Method: as §1

[6] = tested on: sigma (σ) receptors (ligand: haloperidol); test: Affinity for receptors, displacement of labelled specific ligand: sigma; assay type: binding
Method: as §2

[7] = molecular target: 5HT receptors (type 5HT2A) (Homo sapiens, UniProt P28223); test: Affinity for receptors, displacement of labelled specific ligand: 5HT2A; assay type: binding; settings: for inhibition at 10 µM: concentration 10^−5 M; for inhibition at 0.1 µM: concentration 10^−7 M
Sequence of 5HT receptors (type 5HT2A) (P28223 whole entry): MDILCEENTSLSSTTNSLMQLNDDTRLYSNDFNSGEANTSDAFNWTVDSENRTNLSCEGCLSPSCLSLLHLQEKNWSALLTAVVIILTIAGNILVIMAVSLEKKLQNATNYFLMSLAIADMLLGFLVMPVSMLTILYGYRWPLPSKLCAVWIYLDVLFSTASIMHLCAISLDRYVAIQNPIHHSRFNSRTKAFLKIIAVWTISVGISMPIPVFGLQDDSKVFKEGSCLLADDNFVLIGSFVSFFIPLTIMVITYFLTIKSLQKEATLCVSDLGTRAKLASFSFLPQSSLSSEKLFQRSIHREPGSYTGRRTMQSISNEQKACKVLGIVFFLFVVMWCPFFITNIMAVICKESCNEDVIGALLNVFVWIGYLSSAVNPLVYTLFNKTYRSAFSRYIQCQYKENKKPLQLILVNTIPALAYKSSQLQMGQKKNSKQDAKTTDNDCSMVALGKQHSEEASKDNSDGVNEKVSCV

[8] = tested on: tyrosine hydroxylase (TH) protein; test: Induction of tyrosine hydroxylase (TH) in LC, SN and VTA of the mouse brain; assay type: in vivo, Balb/C mouse; settings: for amount of TH in LC section 1: LC section 1 (posterior-to-anterior); for amount of TH in LC section 1 / amount of TH, LC, total: i.p. 20 mg/kg; for amount of TH in LC section 1 / amount of TH in LC section 2 / amount of TH in LC section 3 / amount of TH in LC section 4 / amount of TH in LC section 5 / amount of TH in LC section 6 / amount of TH in LC section 7 / amount of TH in LC section 8 / amount of TH in LC section 9 / amount of TH in LC section 10 / amount of TH in LC section 11 / amount of TH, LC, total: three days after single injection; for amount of TH in LC section 1 / amount of TH in LC section 2 / amount of TH in LC section 3 / amount of TH in LC section 4 / amount of TH in LC section 5 / amount of TH in LC section 6 / amount of TH in LC section 7 / amount of TH in LC section 8 / amount of TH in LC section 9 / amount of TH in LC section 10 / amount of TH in LC section 11 / amount of TH, LC, total / TH induction in the SN / TH induction in the VTA: relative to mean value of control group; for amount of TH in LC section 2: LC section 2, i.p. 20 mg/kg; for amount of TH in LC section 3: LC section 3, i.p. 20 mg/kg; for amount of TH in LC section 4: LC section 4, i.p. 20 mg/kg; for amount of TH in LC section 5: LC section 5, i.p. 20 mg/kg; for amount of TH in LC section 6: LC section 6, i.p. 20 mg/kg; for amount of TH in LC section 7: LC section 7, i.p. 20 mg/kg; for amount of TH in LC section 8: LC section 8, i.p. 20 mg/kg; for amount of TH in LC section 9: LC section 9, i.p. 20 mg/kg; for amount of TH in LC section 10: LC section 10, i.p. 20 mg/kg; for amount of TH in LC section 11: LC section 11, i.p. 20 mg/kg; for TH induction in the SN: substantia nigra; for TH induction in the SN / TH induction in the VTA: single i.p. injection; for TH induction in the VTA: ventral tegmental area
Excerpt: A search is made among the compounds for those which are capable of bringing about an increase in the tyrosine hydroxylase (TH) protein in the locus coeruleus (LC), substantia nigra (SN) and ventral tegmental area (VTA) of the brain of the Balb/C mouse. The animals used are consanguinal male mice of the pure Balb/C strain (Charles River Laboratories) aged 6 weeks at the time of treatment.
The mice are given a single injection, by the intraperitoneal route, of the compound under test, dissolved in 0.04M HCl solution (corresponding control: 0.04M HCl), if the compound is sufficiently soluble, or in olive oil 90%/DMSO 10% (corresponding control: olive oil 90%/DMSO 10%) for compounds that are insoluble in an aqueous medium. The volume injected is 100 μl. The test groups comprise 10 animals.
Three days after the injection of each compound, all the animals are sacrificed by decapitation. The brains are removed and then frozen in an isopentane solution at −30° C. for 45 seconds and subsequently stored at −80° C.
Serial coronal sections 20 microns thick are then taken using a cryomicrotome. Each structure of interest is then sampled along the posterior-anterior axis of the brain by taking sections at 80-micron spacings in the case of the LC and at 80- or 160-micron spacings in the case of the VTA and SN. The limits of those structures are those described in the atlas of Franklin and Paxinos. The total proteins of each of those sections are transferred by direct collection of the sections to a nitrocellulose filter (Millipore). The amounts of TH present in each sample are measured by immunochemistry, fluorimetric detection and image analysis.

[9] = tested on: confluent endothelial cells from bovine capillaries; test: Predicted crossing of the blood-brain barrier (BBB); assay type: in vitro ADME; set-up: key: high; intermediate; low; settings: 20 μM in upper compartment, filter with bovine capillary endothelial cells, 10-60 minutes, LC-MS-MS
Method: The substances are incubated at 20 μM in the upper compartment of a double container, the upper compartment being separated from the lower compartment either solely by a polycarbonate filter or by the same filter covered with confluent endothelial cells from bovine capillaries. Evaluation of the permeability kinetics is carried out by means of LC-MS-MS quantification of the unchanged substance in the lower compartment after 10, 20, 30, 40 and 60 minutes.
The results are given in the form of the categories: high, intermediate, low.

| Compound | inhibition at 10 µM [3] [%] | inhibition at 0.1 µM [3] [%] | inhibition at 10 µM [4] [%] | inhibition at 0.1 µM [4] [%] | inhibition at 10 µM [7] [%] | inhibition at 0.1 µM [7] [%] | amount of TH in LC section 1 [8] | amount of TH in LC section 2 [8] | amount of TH in LC section 3 [8] | amount of TH in LC section 4 [8] [%] | amount of TH in LC section 5 [8] | amount of TH in LC section 6 [8] | amount of TH in LC section 7 [8] | amount of TH in LC section 8 [8] | amount of TH in LC section 9 [8] | amount of TH in LC section 10 [8] | amount of TH in LC section 11 [8] | amount of TH, LC, total [8] | TH induction in the SN [8] | TH induction in the VTA [8] | other results |
| --- | --- | --- | --- | --- | --- | --- | --- | --- | --- | --- | --- | --- | --- | --- | --- | --- | --- | --- | --- | --- | --- |
| CN1CCN(CCN2CCCC(C(=O)Nn3ccc4ccccc43)C2)CC1 (stereo not shown) [Example 25, N-(1H-indol-1-yl)-1-[2-(4-methyl-1-piperazinyl)ethyl]-3-piperidine-carboxamide] | < 10 | < 10 | < 10 | < 10 | 14 | 12 |  |  |  |  |  |  |  |  |  |  |  |  |  |  | % metabolic stability predicted using hepatic microsomes, Human [1]: 63%; % inhibition M [2]: 27%; % metabolic stability predicted using hepatic microsomes, Mouse [5]: 85%; % inhibition σ ([6]; concentration 10^−5 M): 100%; % inhibition σ ([6]; concentration 10^−7 M): 17% |
| C=CCN1CCCC(C(=O)Nn2ccc3cc(Cl)ccc32)C1 (stereo not shown) [Example 12, 1-Allyl-N-(5-chloro-1H-indol-1-yl)piperidine-3-carboxamide] | < 10 | < 10 | < 10 | < 10 | < 10 | < 10 | 57% | 70% | 80% | 110 | 114% | 92% | 95% | 82% | 98% | 94% | 26% | 90% | 122* % | 95% | TH induction in the LC, in words [8]: without increasing expression of the protein; TH induction in the SN, in words [8]: induce TH in the SN; TH induction in the VTA, in words [8]: without increasing expression of the protein; % inhibition M [2]: 51%; % inhibition σ ([6]; concentration 10^−5 M): 85%; % inhibition σ ([6]; concentration 10^−7 M): 18% |
| O=C(Nn1ccc2ccccc21)C1CCCN(CCN2CCCCC2)C1 (stereo not shown) [Example 24, N-(1H-indol-1-yl)-1-[2-(1-piperidyl)ethyl]-3-piperidinecarboxamide] |  |  |  |  |  |  | 165* % | 157* % | 120% | 127 | 145* % | 131** % | 139* % | 116% | 139% | 96% | 94% | 129** % |  |  | degree of crossing of the BBB (category) [9]: high |
| O=C(Nn1ccc2ccccc21)C1CCCN(CCN2CCN(CCO)CC2)C1 (stereo not shown) [Example 26, 1-{2-[4-(2-Hydroxyethyl)-1-piperazinyl]ethyl}-N-(1H-indol-1-yl)-3-piperidinecarboxamide] |  |  |  |  |  |  | 152* % | 98% | 136** % | 107 | 154** % | 133* % | 127* % | 96% | 132% | 110% | 89% | 121** % |  |  |  |
| CN1CC[C@H](C(=O)Nn2ccc3ccccc32)[C@H](c2ccc(F)cc2)C1 [Example 38, (3R,4S)-3-(4-Fluorophenyl)-N-(1H-indol-1-yl)-1-methylpiperidine-4-carboxamide] |  |  |  |  |  |  |  |  |  |  |  |  |  |  |  |  |  |  |  |  | melting point: 134 °C |
| CN1CCC=C(C(=O)Nn2ccc3ccccc32)C1 [Example 1, N-(1H-indol-1-yl)-1-methyl-1,2,5,6-tetrahydropyridine-3-carboxamide] | < 10 | < 10 | < 10 | < 10 | < 10 | < 10 | 57% | 72% | 128% | 128 | 158* % | 152* % | 131% | 107% | 106% | 95% | 55% | 121% | 155** % | 125% | TH induction in the SN, in words [8]: markedly induces TH; TH induction in the VTA, in words [8]: markedly induces TH; TH induction in the medial LC (sections 4, 5 and 6), in words ([8]; medial LC): markedly induces TH; % metabolic stability predicted using hepatic microsomes, Human [1]: 70%; % inhibition M [2]: 23%; % metabolic stability predicted using hepatic microsomes, Mouse [5]: 40%; % inhibition σ ([6]; concentration 10^−5 M): 44%; degree of crossing of the BBB (category) [9]: high |
| CN1CCC=C(C(=O)Nn2ccc3cc(F)ccc32)C1 [Example 7, N-(5-fluoro-1H-indol-1-yl)-1-methyl-1,2,5,6-tetrahydropyridine-3-carboxamide] | < 10 | < 10 | < 10 | < 10 | < 10 | < 10 | 113% | 139* % | 112% | 119 | 138** % | 122% | 141** % | 131* % | 96% | 125% | 106% | 123** % | 88* % | 94% | TH induction in the LC, in words [8]: induce TH only in the LC; degree of crossing of the BBB (category) [9]: high |
| CN(C)CCN1CCCC(C(=O)Nn2ccc3ccccc32)C1 (stereo not shown) [Example 22, 1-[2-(Dimethylamino)ethyl]-N-(1H-indol-1-yl)-3-piperidinecarboxamide] |  |  |  |  |  |  | 79% | 101% | 112% | 98 | 108% | 113% | 146** % | 120% | 135* % | 179** % | 145* % | 119** % |  |  |  |
| CN1CCC=C(C(=O)NN2CCc3ccccc32)C1 [Example 15, N-(2,3-dihydro-1H-indol-1-yl)-1-methyl-1,2,5,6-tetrahydropyridine-3-carboxamide] |  |  |  |  |  |  |  |  |  |  |  |  |  |  |  |  |  |  | 91% | 88* % |  |
